According to US20060234916A1, “Cardioprotective agent” (Mizuo Miyazaki, priority 2003, published 2006):

How the values were obtained:
chymase = target: T1, chymase (Homo sapiens, UniProt P23946); experiment: Suppression of chymase activity in blood vessel tissue of the living body after use during operation; type: in vivo; details: used at 10 μM during the operation; effect for 4 weeks
T1 construct: the chymase activity in the blood vessel tissue of the living body; from tissue; host or cells: blood vessel tissue of the living body
T1 sequence (P23946 22-247): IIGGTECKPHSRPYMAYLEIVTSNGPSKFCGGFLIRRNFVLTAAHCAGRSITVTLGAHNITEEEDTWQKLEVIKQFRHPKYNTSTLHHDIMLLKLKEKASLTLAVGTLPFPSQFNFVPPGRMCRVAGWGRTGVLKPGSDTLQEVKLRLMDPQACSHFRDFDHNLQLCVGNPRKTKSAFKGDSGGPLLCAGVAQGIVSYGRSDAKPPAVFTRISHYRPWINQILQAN
Description: The agent of the present invention allows at least one protease inhibitor to be administered in a substantially sufficient amount so that the inhibitor may exist by an effective concentration in the site of heart to protect. […] The effective administration amount of chymase inhibitor (Suc-Val-Pro-L-Phe^P(Oph)2) can be selected in the range from 0.0001 to 100 mg per 1 kg of adult body weight, per one day. For example, it is administered intravenously by an amount selected in the range from 0.001 to 100 mg, preferably from 0.01 to 1 mg, and orally by an amount selected in the range from 0.1 to 100 mg, preferably from 0.1 to 10 mg.

[1] = system: Syrian hamsters myocardial infarction model; experiment: Survival rate after myocardial infarction (left coronary artery ligation) with oral administration; type: in vivo; details: placebo 39.1%
Description: The left coronary artery was ligated in Syrian hamsters (SLC, Co., Ltd., Shizuoka, Japan), 6 weeks of age, weighing 85 to 90 g, to prepare a myocardial infarction model (Jpn. J. Pharmacol., 86, p. 203-214 2001 life Sci. 71 p. 437-446 2002). […] It should be noted that the significant test was performed by log rank test using the survival curve.

[2] = Stability (half-life) in human blood plasma; type: in vitro ADME
Description: The agent of the present invention may contain the peptide derivative of an aryl diester of alpha-aminoalkylphosphonic acids. […] These derivatives are contained in human blood plasma, and remarkably stable under a variety of circumstances. For example, the preferred inhibitor Suc-Val-Pro-Phe^P(OPh)2, particularly preferably, Suc-Val-Pro-L-Phe^P(OPh)2 contained in the agent of the present invention, has a half-life of about 20 hours in human blood plasma. This stability is important, because it is predicted that a peritoneal exudate neutralizes most of protease inhibitors to damage their activity. Aminoalkylphosphonic acids are analogous of alpha-amino acids, and designated by the generally acceptable three-letter abbreviation for an amino acid followed by the superscript P. For example, diphenyl alpha-(N-benzyloxycarbonylamino)ethylphosphonate which is related to alanine is abbreviated Cbz-Ala^P(OPh)2.

Molecule	chymase activity in the blood vessel tissue of the living body (chymase)	survival rate up to the 14th day ([1]; 10 mg/kg orally once a day, administered from the day before the operation, log rank test significant, FIG. 1) [%]	survival rate up to the 14th day ([1]; 10 mg/kg orally, administered from the day after the operation, significant, FIG. 2) [%]	half-life in human blood plasma [2]
CC(C)C(NC(=O)CCC(=O)O)C(=O)N1CCCC1C(=O)NC(Cc1ccccc1)P(=O)(Oc1ccccc1)Oc1ccccc1 [Suc-Val-Pro-L-Phe^P(OPh)2]	suppress significantly	88.9	88.9	about 20 hours
Suc-Val-Pro-Phe^P(OPh)2				about 20 hours
